# Measured values taken from article PMC5949604.
# Experiment: aziridine aldehyde dimer (S-serine-type dimer 3, parent) + tBuNC multicomponent (disrupted Ugi) head-to-tail macrocyclisation of N-terminal Pro peptides; linker inserts CH-CH-N between Pro N and C-terminal C=O (forms Pro N-C bond and C-terminal acyl aziridine N-C(=O) bond)
# Conditions: the molecule shown is the open-chain precursor, TFE, 100.0 mM
smiles,measurement,setting,value
CC(C)C[C@H](NC(=O)CNC(=O)[C@]1(C)CCCN1)C(=O)NCC(=O)N[C@H](Cc1ccccc1)C(=O)O [H-L-alpha-MePro-Gly-Leu-Gly-D-Phe-OH],"ring closure, isolated yield",18-membered ring,0%
CC(C)C[C@H](NC(=O)CNC(=O)C[C@@H]1CCCN1)C(=O)NCC(=O)N[C@H](Cc1ccccc1)C(=O)O [H-L-beta-homoPro-Gly-Leu-Gly-D-Phe-OH],"ring closure, isolated yield",19-membered ring,0%
CC(C)C[C@H](NC(=O)[C@H](COC(C)(C)C)NC(=O)C[C@@H]1CCCN1)C(=O)N[C@@H](Cc1ccc(OC(C)(C)C)cc1)C(=O)N[C@@H](Cc1ccccc1)C(=O)O [H-L-beta-homoPro-Ser(tBu)-Leu-Tyr(tBu)-Phe-OH],"ring closure, isolated yield",19-membered ring,0%
CC(C)C[C@H](NC(=O)[C@H](C)NC(=O)[C@@H]1CCCN1)C(=O)NCC(=O)N[C@@H](Cc1ccccc1)C(=O)O [H-Pro-Ala-Leu-Gly-Phe-OH],"ring closure, isolated yield","18-membered ring, 4.0 h",12%
CC(C)C[C@@H](NC(=O)CNC(=O)[C@@H]1CCCN1)C(=O)NCC(=O)N[C@H](CCCCNC(=O)OC(C)(C)C)C(=O)O [H-Pro-Gly-D-Leu-Gly-D-Lys(Boc)-OH],"ring closure, isolated yield","18-membered ring, 6.0 h",0%
CC(C)C[C@@H](NC(=O)CNC(=O)[C@@H]1CCCN1)C(=O)NCC(=O)N[C@@H](Cc1ccccc1)C(=O)O [H-Pro-Gly-D-Leu-Gly-Phe-OH],"ring closure, isolated yield","18-membered ring, 4.0 h",28%
CC(C)C[C@H](NC(=O)CNC(=O)[C@@H]1CCCN1)C(=O)N[C@@H](C)C(=O)N[C@@H](Cc1ccccc1)C(=O)O [H-Pro-Gly-Leu-Ala-Phe-OH],"ring closure, isolated yield","18-membered ring, 6.0 h",9%
CC(C)C[C@H](NC(=O)CNC(=O)[C@@H]1CCCN1)C(=O)NCC(=O)N[C@H](Cc1ccccc1)C(=O)O [H-Pro-Gly-Leu-Gly-D-Phe-OH],"ring closure, isolated yield","18-membered ring, 4.0 h",0%
CC(C)C[C@H](NC(=O)CNC(=O)[C@@H]1CCCN1)C(=O)NCC(=O)N[C@@H](CCCCNC(=O)OC(C)(C)C)C(=O)O [H-Pro-Gly-Leu-Gly-Lys(Boc)-OH],"ring closure, isolated yield","18-membered ring, 6.0 h",23%
CC(C)C[C@H](NC(=O)CNC(=O)[C@@H]1CCCN1)C(=O)NCC(=O)N[C@@H](Cc1ccccc1)C(=O)O [H-Pro-Gly-Leu-Gly-Phe-OH],"ring closure, isolated yield","18-membered ring, 4.0 h",34%
CC(C)C[C@H](NC(=O)CNC(=O)[C@@H]1CCCN1)C(=O)N[C@@H](CCCCNC(=O)OC(C)(C)C)C(=O)O [H-Pro-Gly-Leu-Lys(Boc)-OH],"ring closure, isolated yield","15-membered ring, 6.0 h",0%
O=C(CNC(=O)[C@@H]1CCCN1)N[C@@H](Cc1ccccc1)C(=O)O [H-Pro-Gly-Phe-OH],"ring closure, isolated yield","12-membered ring, 4.0 h",0%
CC(C)C[C@H](NC(=O)[C@H](CC(C)C)N(C)C(=O)[C@@H]1CCCN1)C(=O)NCC(=O)N[C@@H](Cc1ccccc1)C(=O)O [H-Pro-N-Me-Leu-Leu-Gly-Phe-OH],"ring closure, isolated yield",18-membered ring,0%
CC(C)C[C@H](NC(=O)CN(C)C(=O)[C@@H]1CCCN1)C(=O)NCC(=O)N[C@@H](Cc1ccccc1)C(=O)O [H-Pro-Sar-Leu-Gly-Phe-OH],"ring closure, isolated yield",18-membered ring,0%
CC(C)C[C@H](NC(=O)[C@H](COC(C)(C)C)NC(=O)[C@@H]1CCCN1)C(=O)NCC(=O)N[C@@H](Cc1ccccc1)C(=O)O [H-Pro-Ser(tBu)-Leu-Gly-Phe-OH],"ring closure, isolated yield","18-membered ring, 4.0 h",49%
CC(C)C[C@H](NC(=O)[C@H](COC(C)(C)C)NC(=O)[C@@H]1CCCN1)C(=O)N[C@@H](Cc1ccc(OC(C)(C)C)cc1)C(=O)N[C@@H](Cc1ccccc1)C(=O)O [H-Pro-Ser(tBu)-Leu-Tyr(tBu)-Phe-OH],"ring closure, isolated yield","18-membered ring, 4.0 h",22%
